Assays:
Flt-3 kinase = Flt-3 kinase (Homo sapiens (Human), UniProt P36888); assay: Flt-3 kinase biochemical activity assay (AlphaScreen, biotin-(E4Y)10 phosphorylation); details: 100 μM ATP
Method: In one assay the biochemical activity IC50 values are determined with respect to inhibition of Flt-3 kinase activity, where inhibition of phosphorylation of a peptide substrate is measured as a function of compound concentration. Compounds to be tested, dissolved in DMSO (1 μL), are added to a white 384-well plate (Costar #3705). Working stocks of Flt-3 kinase (Invitrogen), biotin-(E4Y)10 substrate (Upstate Biotech, Cat#12-440), and ATP (Sigma, Cat#A-3377) are prepared in 25 mM Hepes pH 7.5, 5 mM MgCl2, 5 mM MnCl2, 1 mM DTT, and 0.01% Tween-20. All components are added to the 384-well plate for a final concentration of 1 ng/well Flt-3, 30 nM biotin-(E4Y)10 and 100 μM ATP in a volume of 20 μL. Each sample is at 5% DMSO. The plate is then incubated for 1 hour at room temperature. Just before use, working stocks of donor and acceptor beads from the AlphaScreen PY20 Detection Kit (PerkinElmer, Cat#676601M) are prepared in 25 mM Hepes pH 7.5, pH 7.4, 100 mM EDTA. 0.3% BSA. To stop the reaction, the plate is uncovered in the dark and 5 μL of Donor Beads solution (Streptavidin beads) is added to each well. The plate is incubated at room temperature for 20 minutes. Five microliters of Acceptor Beads solution (PY20 coated beads) are then added to each well. The final concentration of each bead is 10 μg/mL. The plates are incubated at room temperature for 60 minutes. Fluorescence signal is recorded on the Envision reader. Phosphorylated substrate results in binding of the PY20 antibody and association of the donor and acceptor beads such that signal correlates with kinase activity. The signal vs. compound concentration is used to determine the IC50.

[1] = Turbidity assay of relative solubility in aqueous buffers; type: physicochemical; details: for turbidity threshold (L, M, H) 1.4: pH 1.4 as headed (method: SGF pH 1.5); for turbidity threshold (L, M, H) 4.5: pH 4.5 (SIF); for turbidity threshold (L, M, H) 6.8: pH 6.8 (SIF); for turbidity threshold (L, M, H) 7.4: pH 7.4 (HEPES)
Summary of the method: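 Turbidity was read spectrophotometrically at 490, 535 and 650 nm, and the endpoint is the concentration where OD passes 0.01, as the mean of the three wavelengths. Compounds came from 25 mM DMSO stock in 1:1 serial dilutions, added to HEPES pH 7.4, SIF pH 6.8 or 4.5 (0.05M NaH2PO4), or SGF pH 1.5 (0.5M NaCl).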

Sequence of Flt-3 kinase (P36888 27-993): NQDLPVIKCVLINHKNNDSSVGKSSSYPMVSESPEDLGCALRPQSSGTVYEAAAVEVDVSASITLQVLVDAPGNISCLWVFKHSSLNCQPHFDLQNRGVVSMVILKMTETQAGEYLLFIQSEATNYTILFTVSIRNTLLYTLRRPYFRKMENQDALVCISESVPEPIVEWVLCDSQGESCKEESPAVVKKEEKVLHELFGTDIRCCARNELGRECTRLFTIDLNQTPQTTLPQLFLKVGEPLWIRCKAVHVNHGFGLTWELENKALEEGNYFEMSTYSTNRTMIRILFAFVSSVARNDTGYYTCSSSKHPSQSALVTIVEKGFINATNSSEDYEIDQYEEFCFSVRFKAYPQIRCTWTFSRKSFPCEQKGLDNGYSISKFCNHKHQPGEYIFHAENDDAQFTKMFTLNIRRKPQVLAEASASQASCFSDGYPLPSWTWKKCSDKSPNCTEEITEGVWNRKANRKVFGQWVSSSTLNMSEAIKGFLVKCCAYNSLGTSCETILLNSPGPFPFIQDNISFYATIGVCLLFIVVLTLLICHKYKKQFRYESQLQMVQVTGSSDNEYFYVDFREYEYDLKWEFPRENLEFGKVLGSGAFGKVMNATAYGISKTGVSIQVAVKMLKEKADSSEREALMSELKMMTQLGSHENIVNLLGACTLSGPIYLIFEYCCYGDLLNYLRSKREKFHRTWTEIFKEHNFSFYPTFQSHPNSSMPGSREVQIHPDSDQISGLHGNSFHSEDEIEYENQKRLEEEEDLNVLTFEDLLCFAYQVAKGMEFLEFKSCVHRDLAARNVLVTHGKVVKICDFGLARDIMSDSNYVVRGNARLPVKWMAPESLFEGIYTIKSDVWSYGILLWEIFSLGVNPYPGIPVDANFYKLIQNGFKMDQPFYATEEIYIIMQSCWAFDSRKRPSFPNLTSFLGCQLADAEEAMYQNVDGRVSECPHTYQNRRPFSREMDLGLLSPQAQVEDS

COc1cnc2[nH]cc(Cc3ccc(NCc4ccc(Cl)cc4)nc3F)c2c1 [Compound P-2032, (4-Chloro-benzyl)-[6-fluoro-5-(5-methoxy-1H-pyrrolo[2,3-b]pyridin-3-ylmethyl)-pyridin-2-yl]-amine]
IC50 (Flt-3 kinase): < 0.1 µM
turbidity threshold (L, M, H) 1.4 [1]: M (moderate solubility if the threshold concentration is 31.3 μM to 250 μM)
turbidity threshold (L, M, H) 4.5 [1]: L (low solubility if the threshold concentration is <31.3 μM)
turbidity threshold (L, M, H) 6.8 [1]: L (low solubility if the threshold concentration is <31.3 μM)
turbidity threshold (L, M, H) 7.4 [1]: L (low solubility if the threshold concentration is <31.3 μM)

COc1ccnc2[nH]cc(Cc3ccc(NCc4ccc(Cl)cc4)nc3F)c12 [Compound P-2037, (4-Chloro-benzyl)-[6-fluoro-5-(4-methoxy-1H-pyrrolo[2,3-b]pyridin-3-ylmethyl)-pyridin-2-yl]-amine]
IC50 (Flt-3 kinase): < 0.1 µM
turbidity threshold (L, M, H) 1.4 [1]: M (moderate solubility if the threshold concentration is 31.3 μM to 250 μM)
turbidity threshold (L, M, H) 4.5 [1]: L (low solubility if the threshold concentration is <31.3 μM)
turbidity threshold (L, M, H) 6.8 [1]: L (low solubility if the threshold concentration is <31.3 μM)
turbidity threshold (L, M, H) 7.4 [1]: L (low solubility if the threshold concentration is <31.3 μM)

COc1ccc(CNc2ncc(Cc3c[nH]c4ncc(Cl)cc34)cn2)cn1 [Compound P-2038, [5-(5-Chloro-1H-pyrrolo[2,3-b]pyridin-3-ylmethyl)-pyrimidin-2-yl]-(6-methoxy-pyridin-3-ylmethyl)-amine]
IC50 (Flt-3 kinase): < 0.1 µM
turbidity threshold (L, M, H) 1.4 [1]: H (high solubility if the threshold concentration is >250 μM)
turbidity threshold (L, M, H) 4.5 [1]: L (low solubility if the threshold concentration is <31.3 μM)
turbidity threshold (L, M, H) 6.8 [1]: L (low solubility if the threshold concentration is <31.3 μM)
turbidity threshold (L, M, H) 7.4 [1]: L (low solubility if the threshold concentration is <31.3 μM)

COc1ccc(CNc2ncc(Cc3c[nH]c4ncc(C)cc34)cn2)cn1 [Compound P-2057, (6-Methoxy-pyridin-3-ylmethyl)-[5-(5-methyl-1H-pyrrolo[2,3-b]pyridin-3-ylmethyl)-pyrimidin-2-yl]-amine]
IC50 (Flt-3 kinase): < 0.1 µM
turbidity threshold (L, M, H) 1.4 [1]: H (high solubility if the threshold concentration is >250 μM)
turbidity threshold (L, M, H) 4.5 [1]: L (low solubility if the threshold concentration is <31.3 μM)
turbidity threshold (L, M, H) 6.8 [1]: L (low solubility if the threshold concentration is <31.3 μM)
turbidity threshold (L, M, H) 7.4 [1]: M (moderate solubility if the threshold concentration is 31.3 μM to 250 μM)

COc1ncc(CNc2ccc(Cc3c[nH]c4ncc(Cl)cc34)c(F)n2)cc1F [Compound P-2165, [5-(5-Chloro-1H-pyrrolo[2,3-b]pyridin-3-ylmethyl)-6-fluoro-pyridin-2-yl]-(5-fluoro-6-methoxy-pyridin-3-ylmethyl)-amine]
IC50 (Flt-3 kinase): < 0.1 µM
turbidity threshold (L, M, H) 1.4 [1]: L (low solubility if the threshold concentration is <31.3 μM)
turbidity threshold (L, M, H) 4.5 [1]: L (low solubility if the threshold concentration is <31.3 μM)
turbidity threshold (L, M, H) 6.8 [1]: L (low solubility if the threshold concentration is <31.3 μM)
turbidity threshold (L, M, H) 7.4 [1]: L (low solubility if the threshold concentration is <31.3 μM)

Source: patent US9096593B2, “Compounds and methods for kinase modulation, and indications therefor” (Plexxikon Inc., priority 2009, dated 2015)
